Test results taken from the NIST ThermoML archive (doi:10.1021/je060271a).

Settings: Liquid, Vibrating tube method

CCCC(=O)OCC(COC(=O)CCC)(COC(=O)CCC)COC(=O)CCC [pentaerythritol tetrabutyrate]
Settings	mass density [kg/m3]
343.14 K, 27001 kPa	1027.8
343.14 K, 27378 kPa	1028.1
343.14 K, 27722 kPa	1028.3
343.14 K, 28167 kPa	1028.7
343.14 K, 28200 kPa	1028.7
343.14 K, 28241 kPa	1028.7
343.14 K, 29595 kPa	1029.4
343.14 K, 29634 kPa	1029.5
343.14 K, 29666 kPa	1029.7
343.14 K, 29705 kPa	1029.5
343.14 K, 30226 kPa	1030
343.14 K, 30268 kPa	1029.9
343.14 K, 30303 kPa	1029.9
343.14 K, 30331 kPa	1030
343.14 K, 30366 kPa	1030.1
343.14 K, 30394 kPa	1030.1
343.14 K, 30429 kPa	1029.9
343.14 K, 30464 kPa	1030.1
343.14 K, 30785 kPa	1030.4
343.14 K, 30814 kPa	1030.4
343.14 K, 30849 kPa	1030.4
343.14 K, 30886 kPa	1030.3
343.14 K, 30916 kPa	1030.4
343.14 K, 32186 kPa	1031.3
343.14 K, 32224 kPa	1031.2
343.14 K, 32886 kPa	1031.6
343.14 K, 32998 kPa	1031.7
343.14 K, 33543 kPa	1032
343.14 K, 33577 kPa	1032.2
343.14 K, 33620 kPa	1032.2
343.14 K, 33664 kPa	1032.2
343.14 K, 33699 kPa	1032.2
343.14 K, 33741 kPa	1032.2
343.14 K, 33784 kPa	1032.2
343.14 K, 33820 kPa	1032.2
343.14 K, 33863 kPa	1032.3
343.14 K, 33907 kPa	1032.4
343.15 K, 454.1 kPa	1008.4
343.15 K, 473 kPa	1008.4
343.15 K, 494.2 kPa	1008.5
343.15 K, 517.1 kPa	1008.3
343.15 K, 5946.5 kPa	1012.7
343.15 K, 6013.6 kPa	1012.8
343.15 K, 6051.1 kPa	1012.8
343.15 K, 6081.9 kPa	1012.8
343.15 K, 7040 kPa	1013.6
343.15 K, 7078.5 kPa	1013.6
343.15 K, 7108.1 kPa	1013.7
343.15 K, 7140.9 kPa	1013.7
343.15 K, 8048.2 kPa	1014.3
343.15 K, 8412.3 kPa	1014.7
343.15 K, 8447.3 kPa	1014.8
343.15 K, 8482.2 kPa	1014.7
343.15 K, 8511.5 kPa	1014.7
343.15 K, 8547 kPa	1014.6
343.15 K, 8583.2 kPa	1014.8
343.15 K, 8618.9 kPa	1014.8
343.15 K, 8655.1 kPa	1014.9
343.15 K, 8686 kPa	1014.8
343.15 K, 8982.4 kPa	1015
343.15 K, 9021.7 kPa	1015.1
343.15 K, 9062.3 kPa	1015.2
343.15 K, 9096.7 kPa	1015.2
343.15 K, 9137.8 kPa	1015.1
343.15 K, 9179.2 kPa	1015.3
343.15 K, 9602.2 kPa	1015.6
343.15 K, 9638.9 kPa	1015.4
343.15 K, 9676.1 kPa	1015.7
343.15 K, 9713.7 kPa	1015.6
343.15 K, 9822.7 kPa	1015.8
343.15 K, 9861.5 kPa	1015.8
343.15 K, 9900.4 kPa	1015.9
343.15 K, 9939.7 kPa	1015.8
343.15 K, 9973.1 kPa	1015.9
343.15 K, 10013 kPa	1016
343.15 K, 10053 kPa	1015.8
343.15 K, 10095 kPa	1015.9
343.15 K, 10129 kPa	1015.9
343.15 K, 10171 kPa	1016
343.15 K, 10545 kPa	1016.2
343.15 K, 10590 kPa	1016.2
343.15 K, 10635 kPa	1016.3
343.15 K, 10674 kPa	1016.5
343.15 K, 10720 kPa	1016.3
343.15 K, 10767 kPa	1016.4
343.15 K, 10943 kPa	1016.5
343.15 K, 10980 kPa	1016.7
343.15 K, 11011 kPa	1016.6
343.15 K, 11049 kPa	1016.6
343.15 K, 11087 kPa	1016.7
343.15 K, 11125 kPa	1016.7
343.15 K, 11163 kPa	1016.7
343.15 K, 11196 kPa	1016.8
343.15 K, 11235 kPa	1016.8
343.15 K, 11314 kPa	1016.8
343.15 K, 11354 kPa	1016.8
343.15 K, 11388 kPa	1017
343.15 K, 11428 kPa	1016.8
343.15 K, 11468 kPa	1017
343.15 K, 11510 kPa	1017
343.15 K, 11544 kPa	1017
343.15 K, 11586 kPa	1017
343.15 K, 11628 kPa	1017.2
343.15 K, 11670 kPa	1017.1
343.15 K, 11714 kPa	1017.1
343.15 K, 11749 kPa	1017.1
343.15 K, 11792 kPa	1017.1
343.15 K, 11837 kPa	1017.3
343.15 K, 12365 kPa	1017.5
343.15 K, 12414 kPa	1017.6
343.15 K, 12458 kPa	1017.7
343.15 K, 12498 kPa	1017.7
343.15 K, 12547 kPa	1017.7
343.15 K, 12597 kPa	1017.8
343.15 K, 12647 kPa	1017.8
343.15 K, 12689 kPa	1017.9
343.15 K, 12739 kPa	1017.8
343.15 K, 12791 kPa	1018
343.15 K, 12843 kPa	1017.9
343.15 K, 12895 kPa	1018
343.15 K, 12939 kPa	1018
343.15 K, 12991 kPa	1018.1
343.15 K, 13044 kPa	1018
343.15 K, 13098 kPa	1018.2
343.15 K, 13151 kPa	1018.2
343.15 K, 13198 kPa	1018.2
343.15 K, 13252 kPa	1018.1
343.15 K, 13307 kPa	1018.2
343.15 K, 13364 kPa	1018.2
343.15 K, 13420 kPa	1018.4
343.15 K, 13468 kPa	1018.5
343.15 K, 13526 kPa	1018.4
343.15 K, 13584 kPa	1018.5
343.15 K, 13644 kPa	1018.5
343.15 K, 13698 kPa	1018.7
343.15 K, 13772 kPa	1018.6
343.15 K, 13822 kPa	1018.7
343.15 K, 13864 kPa	1018.6
343.15 K, 13901 kPa	1018.7
343.15 K, 13931 kPa	1018.8
343.15 K, 13968 kPa	1018.7
343.15 K, 14005 kPa	1018.7
343.15 K, 14043 kPa	1018.9
343.15 K, 14079 kPa	1018.8
343.15 K, 14110 kPa	1018.9
343.15 K, 14147 kPa	1018.9
